# Patent US8859625B2, “Methods to prepare penta-1,4-dien-3-ones and substituted cyclohexanones and derivatives with antitumoral and antiparasitic properties, the compounds and their uses” (Universidade Bandeirante de Sao Paulo-Academia, Paulista …, priority 2006, dated 2014)
# Assays:
# B16F10 melanoma = B16F10 melanoma tumors implanted in C57BL/6J mice, intraperitoneal treatment; tumor area and volume; type: in vivo; conditions: diluted in Miglyol 810, intraperitoneal 1.15 μg/kg daily, to Day 14; tumor volume and area
# Procedure: After the Day 4 of tumor cells implant (2×10^5 tumoral cells/mL), the animals were splitted in two groups: the test group, treated with HB-1 compound diluted in Miglyol 810® and the control group, which received only the diluent (Miglyol 810®) in the same volume as the test group. The animals were daily treated by intraperitoneal route. Concomitantly, measurements of animal weight and tumor size (two measures—length×width) were performed and tumor aspect registered by photographies.
# After the Day 14, the animals were sacrificed by cervical displacement, tumors were removed, and necropsy performed to remove all internal organs and macroscopic lesions for hystopathologic analysis.
# Tumoral parameters were obtained by calculation of tumor average area (A) and volume (V), through the following formulas A=πR^2 and V=4/3πR^3, where (R=average tumor radius). […]
# After tumoral cell implant, the animals were treated with the HB-2 compound diluted in Miglyol 810® and with (HB2+HB-1) conjugate whereas the control group received the same volume of diluent and by the same administration route (intraperitoneal—100 μl). Daily, the animals received the compounds (100 μl) and the control group received Miglyol 810®, the animals were weighted, and the tumors were measured (length×width) and photographed. […]
# [1] = test system: promastigote forms of Leishmania (L) amazonensis (isolate LV79); assay: Promastigote proliferation in Warren medium, Neubauer chamber count; type: cell-based
# Procedure: Compounds are solubilized with dimethyl sulfoxide (DMSO) to produce a stock solution from which samples with different concentrations are obtained, by adding the culture medium in sufficient volume as required to attain the first desired concentration with the other concentrations being obtained by serial dilution of this first one, at ratio 2. The cultures are incubated at 22° C. or 34° C. for promastigotes and amastigotes, respectively.
# As a positive control for parasite viability evaluation, only culture medium and parasite, without any other addition, were used. As toxicity control for the solvent present in compound composition, parasite forms were incubated with DMSO diluted in culture medium.
# To quantify the promastigotes, Neubauer chambers are used and the cultures are quantified every 24 hours throughout the incubation period scheduled for each experiment. The samples are prepared from an initial dilution of 20 μL of the culture into 180 μL of the saline solution formulated (PBS+2% formaldehyde) to obtain a 1/10 dilution. Whenever necessary, serial dilutions may be performed from the first dilution. For all experiments, parasite forms should be incubated with several HB-1 concentrations, its respective controls with DMSO (we should have in mind that the initial HB-1 stock solution was prepared with DMSO and that its toxicity in relation to the parasite forms have to be assessed) and the normal culture, without any component additioned to the medium. Countings are performed as duplicates, by two different people and the final result is expressed as the arithmetic average from the two countings. The same procedure is employed to quantify the amastigote forms.
# Promastigote forms of Leishmania (L) amazonensis (isolate LV79, 8th passage for the culture medium, day 7 of culture, stationary phase) are incubated in a proportion of 10^6 promastigotes/mL in Warren medium, 3.0 mL final volume, in the presence of different concentrations of HB-1 and of the respective controls in equivalent volume of DMSO and culture medium, as positive control for proliferation and viability. The effect of HB-1 on the promastigotes of Leishmania amazonensis cultivated in Warren medium is shown in the next Table and FIG. 33.
smiles,measurement,setting,value
"COc1cc(C=CC(=O)C=Cc2ccc(O)c(OC)c2)ccc1O [HB-1, 1,5-Bis-(4-hydroxy-3-methoxy-phenyl)-penta-1,4-dien-3-one]",percentage of inhibitory treatment for B16F10 melanoma,B16F10 melanoma,higher than 98%
same,N^o. of promastigotes/mL (×10^6),"[1]; HB-1 3.12 μg/mL, 24 hours, Warren medium",3.0 ×10^6 promastigotes/mL
same,N^o. of promastigotes/mL (×10^6),"[1]; HB-1 3.12 μg/mL, 48 hours, Warren medium",5.95 ×10^6 promastigotes/mL
same,N^o. of promastigotes/mL (×10^6),"[1]; HB-1 3.12 μg/mL, 72 hours, Warren medium",10 ×10^6 promastigotes/mL
same,N^o. of promastigotes/mL (×10^6),"[1]; HB-1 3.12 μg/mL, 96 hours, Warren medium",11 ×10^6 promastigotes/mL
same,N^o. of promastigotes/mL (×10^6),"[1]; HB-1 3.12 μg/mL, 120 hours, Warren medium",17 ×10^6 promastigotes/mL
same,N^o. of promastigotes/mL (×10^6),"[1]; HB-1 6.25 μg/mL, 24 hours, Warren medium",2.5 ×10^6 promastigotes/mL
same,N^o. of promastigotes/mL (×10^6),"[1]; HB-1 6.25 μg/mL, 48 hours, Warren medium",3.95 ×10^6 promastigotes/mL
same,N^o. of promastigotes/mL (×10^6),"[1]; HB-1 6.25 μg/mL, 72 hours, Warren medium",7.15 ×10^6 promastigotes/mL
same,N^o. of promastigotes/mL (×10^6),"[1]; HB-1 6.25 μg/mL, 96 hours, Warren medium",13.0 ×10^6 promastigotes/mL
same,N^o. of promastigotes/mL (×10^6),"[1]; HB-1 6.25 μg/mL, 120 hours, Warren medium",18.6 ×10^6 promastigotes/mL
same,effect on promastigotes in words,"[1]; HB-1 12.5 μg/mL to 3.12 μg/mL, Warren medium",sub-lethal
same,N^o. of promastigotes/mL (×10^6),"[1]; HB-1 12.5 μg/mL, 24 hours, Warren medium",2.55 ×10^6 promastigotes/mL
same,N^o. of promastigotes/mL (×10^6),"[1]; HB-1 12.5 μg/mL, 48 hours, Warren medium",2.25 ×10^6 promastigotes/mL
same,N^o. of promastigotes/mL (×10^6),"[1]; HB-1 12.5 μg/mL, 72 hours, Warren medium",3.9 ×10^6 promastigotes/mL
same,N^o. of promastigotes/mL (×10^6),"[1]; HB-1 12.5 μg/mL, 96 hours, Warren medium",5.9 ×10^6 promastigotes/mL
same,N^o. of promastigotes/mL (×10^6),"[1]; HB-1 12.5 μg/mL, 120 hours, Warren medium",18.3 ×10^6 promastigotes/mL
same,N^o. of promastigotes/mL (×10^6),"[1]; HB-1 25 μg/mL, 24 hours, Warren medium",3.25 ×10^6 promastigotes/mL
same,N^o. of promastigotes/mL (×10^6),"[1]; HB-1 25 μg/mL, 48 hours, Warren medium",1.8 ×10^6 promastigotes/mL
same,N^o. of promastigotes/mL (×10^6),"[1]; HB-1 25 μg/mL, 72 hours, Warren medium",0.4 ×10^6 promastigotes/mL
same,N^o. of promastigotes/mL (×10^6),"[1]; HB-1 25 μg/mL, 96 hours, Warren medium",0.1 ×10^6 promastigotes/mL
same,N^o. of promastigotes/mL (×10^6),"[1]; HB-1 25 μg/mL, 120 hours, Warren medium",0 ×10^6 promastigotes/mL
same,time of culture to 100% mortality,"[1]; HB-1 25 μg/mL, Warren medium",120 h
same,N^o. of promastigotes/mL (×10^6),"[1]; HB-1 50 μg/mL, 24 hours, Warren medium",2.1 ×10^6 promastigotes/mL
same,N^o. of promastigotes/mL (×10^6),"[1]; HB-1 50 μg/mL, 48 hours, Warren medium",0.4 ×10^6 promastigotes/mL
same,N^o. of promastigotes/mL (×10^6),"[1]; HB-1 50 μg/mL, 72 hours, Warren medium",0.1 ×10^6 promastigotes/mL
same,N^o. of promastigotes/mL (×10^6),"[1]; HB-1 50 μg/mL, 96 hours, Warren medium",0 ×10^6 promastigotes/mL
same,N^o. of promastigotes/mL (×10^6),"[1]; HB-1 50 μg/mL, 120 hours, Warren medium",0 ×10^6 promastigotes/mL
same,time of culture to 100% mortality,"[1]; HB-1 50 μg/mL, Warren medium",96 h
same,N^o. of promastigotes/mL (×10^6),"[1]; HB-1 100 μg/mL, 24 hours, Warren medium",1.15 ×10^6 promastigotes/mL
same,N^o. of promastigotes/mL (×10^6),"[1]; HB-1 100 μg/mL, 48 hours, Warren medium",0.2 ×10^6 promastigotes/mL
same,N^o. of promastigotes/mL (×10^6),"[1]; HB-1 100 μg/mL, 72 hours, Warren medium",0 ×10^6 promastigotes/mL
same,N^o. of promastigotes/mL (×10^6),"[1]; HB-1 100 μg/mL, 96 hours, Warren medium",0 ×10^6 promastigotes/mL
same,N^o. of promastigotes/mL (×10^6),"[1]; HB-1 100 μg/mL, 120 hours, Warren medium",0 ×10^6 promastigotes/mL
same,time of culture to 100% mortality,"[1]; HB-1 100 μg/mL, Warren medium",72 h
same,inhibition at 25 µg/mL,"[1]; Leishmania, 72 h, read-out: inhibition of parasite proliferation",81%
same,inhibition at 50 µg/mL,"[1]; Leishmania, HB-1 50 μg/mL, after 72 hours, Warren medium, read-out: inhibition of parasite proliferation",95.8%
same,inhibition at 100 µg/mL,"[1]; Leishmania, HB-1 100 μg/mL, after 72 hours, Warren medium, read-out: inhibition of parasite proliferation",100%
